Measured values from PubChem BioAssay (NCI).
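Results reflect a 48-hour exposure of cells in 96-well plates to compound at five concentrations. The concentration for full growth arrest is given as TGI.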

Legend:
Test in all cases: NCI tumour cell line growth inhibition, 48 h
UACC-257 melanoma = test system: UACC-257 melanoma
CAKI-1 renal = test system: CAKI-1 renal
A549 NSCLC = test system: A549 NSCLC
M14 melanoma = test system: M14 melanoma
SK-OV-3 ovarian = test system: SK-OV-3 ovarian
786-0 renal = test system: 786-0 renal
SK-MEL-28 melanoma = test system: SK-MEL-28 melanoma
SNB-75 CNS = test system: SNB-75 CNS
HCC-2998 colon = test system: HCC-2998 colon
SNB-19 CNS = test system: SNB-19 CNS
SN12C renal = test system: SN12C renal
MALME-3M melanoma = test system: MALME-3M melanoma
UO-31 renal = test system: UO-31 renal
PC-3 prostate = test system: PC-3 prostate
LOX IMVI melanoma = test system: LOX IMVI melanoma
SF-295 CNS = test system: SF-295 CNS
RPMI-8226 leukemia = test system: RPMI-8226 leukemia
TK-10 renal = test system: TK-10 renal
NCI-H226 lung = test system: NCI-H226 lung
NCI-H522 lung = test system: NCI-H522 lung

Measured: TGI

c1ccc(C2SCc3nc4cc5ccccc5cc4n32)cc1 (configuration not stated)
> 100 µM: UACC-257 melanoma | CAKI-1 renal | A549 NSCLC | M14 melanoma | SK-OV-3 ovarian | 786-0 renal | SK-MEL-28 melanoma | SNB-75 CNS | HCC-2998 colon | SNB-19 CNS | SN12C renal | MALME-3M melanoma | UO-31 renal | PC-3 prostate | LOX IMVI melanoma | SF-295 CNS | RPMI-8226 leukemia | TK-10 renal | NCI-H226 lung

COc1cc(=O)n2c3ccccc3n(C)c2c1C#N
> 100 µM: UACC-257 melanoma | CAKI-1 renal | A549 NSCLC | M14 melanoma | NCI-H522 lung | SK-OV-3 ovarian | 786-0 renal | SNB-75 CNS | HCC-2998 colon | SNB-19 CNS | SN12C renal | MALME-3M melanoma | UO-31 renal | PC-3 prostate | SF-295 CNS | RPMI-8226 leukemia | TK-10 renal | NCI-H226 lung

C=CCn1c(C23CC4CC(CC(C4)C2)C3)n[nH]c1=S
> 100 µM: UACC-257 melanoma | M14 melanoma | NCI-H522 lung | SK-OV-3 ovarian | 786-0 renal | SK-MEL-28 melanoma | SNB-75 CNS | HCC-2998 colon | SNB-19 CNS | SN12C renal | MALME-3M melanoma | UO-31 renal | PC-3 prostate | LOX IMVI melanoma | SF-295 CNS | RPMI-8226 leukemia | TK-10 renal | NCI-H226 lung

COc1cc(C=C2N=C(c3ccccc3)N(n3c(-c4ccccc4)nc4ccccc4c3=O)C2=O)cc(OC)c1OC
91.4 µM: SK-OV-3 ovarian
38.6 µM: MALME-3M melanoma
89.6 µM: HCC-2998 colon
36.2 µM: SN12C renal
72.3 µM: SNB-19 CNS
41 µM: SF-295 CNS
49.4 µM: NCI-H226 lung
75.7 µM: M14 melanoma
62.6 µM: SNB-75 CNS
> 100 µM: CAKI-1 renal | A549 NSCLC | UO-31 renal | PC-3 prostate | TK-10 renal
45.9 µM: 786-0 renal
43 µM: UACC-257 melanoma
39.7 µM: NCI-H522 lung
41.3 µM: LOX IMVI melanoma
35.5 µM: SK-MEL-28 melanoma

Nc1c(-c2nc3ccccc3o2)sc(=S)n1-c1ccc(Cl)cc1
39.2 µM: A549 NSCLC
27.3 µM: SF-295 CNS
53.4 µM: CAKI-1 renal
49.7 µM: NCI-H522 lung
22.9 µM: 786-0 renal
95.6 µM: UACC-257 melanoma
39.5 µM: SNB-19 CNS
> 100 µM: M14 melanoma | HCC-2998 colon | SN12C renal | UO-31 renal | RPMI-8226 leukemia | TK-10 renal
33.2 µM: SK-OV-3 ovarian
37.7 µM: SK-MEL-28 melanoma
56.5 µM: MALME-3M melanoma
67.1 µM: NCI-H226 lung
82.1 µM: PC-3 prostate

CN1C(=O)N/C(=C\c2ccc(S(=O)(=O)N/N=C\C(O)C(O)C(O)CO)cc2)C1=O (configuration not stated)
> 100 µM: UACC-257 melanoma | CAKI-1 renal | A549 NSCLC | M14 melanoma | SK-OV-3 ovarian | 786-0 renal | SK-MEL-28 melanoma | SNB-75 CNS | HCC-2998 colon | SNB-19 CNS | SN12C renal | MALME-3M melanoma | UO-31 renal | PC-3 prostate | LOX IMVI melanoma | SF-295 CNS | RPMI-8226 leukemia | TK-10 renal

O=c1oc2nc(-c3ccccc3)cc(C(F)(F)F)c2n1Cc1ccccc1
> 82.9 µM: M14 melanoma
> 100 µM: UACC-257 melanoma | CAKI-1 renal | A549 NSCLC | NCI-H522 lung | SK-OV-3 ovarian | 786-0 renal | SK-MEL-28 melanoma | HCC-2998 colon | SNB-19 CNS | SN12C renal | UO-31 renal | PC-3 prostate | LOX IMVI melanoma | SF-295 CNS | TK-10 renal | NCI-H226 lung
98.5 µM: MALME-3M melanoma
> 30.8 µM: RPMI-8226 leukemia

Cc1nc2ccccc2c(=O)n1NC(=O)c1ccc([N+](=O)[O-])cc1
> 100 µM: UACC-257 melanoma | A549 NSCLC | M14 melanoma | NCI-H522 lung | SK-OV-3 ovarian | 786-0 renal | SK-MEL-28 melanoma | SNB-75 CNS | HCC-2998 colon | SNB-19 CNS | SN12C renal | MALME-3M melanoma | UO-31 renal | PC-3 prostate | LOX IMVI melanoma | SF-295 CNS | RPMI-8226 leukemia | TK-10 renal | NCI-H226 lung

O1C2C1C1OC1C1OC1C1OC21 (configuration not stated)
> 100 µM: UACC-257 melanoma | CAKI-1 renal | A549 NSCLC | M14 melanoma | NCI-H522 lung | SK-OV-3 ovarian | 786-0 renal | SK-MEL-28 melanoma | SNB-75 CNS | HCC-2998 colon | SNB-19 CNS | SN12C renal | MALME-3M melanoma | UO-31 renal | PC-3 prostate | LOX IMVI melanoma | SF-295 CNS | TK-10 renal | NCI-H226 lung

CCCCCC[C@H]1CC(=O)C2CCCC[C@@]23CC[C@H](CCl)N13 (some centres not stated) (tested in a mixture with another compound)
90.6 µM: PC-3 prostate
> 100 µM: UACC-257 melanoma | CAKI-1 renal | A549 NSCLC | M14 melanoma | SK-OV-3 ovarian | 786-0 renal | SK-MEL-28 melanoma | HCC-2998 colon | SNB-19 CNS | SN12C renal | MALME-3M melanoma | UO-31 renal | SF-295 CNS | TK-10 renal
81.6 µM: SNB-75 CNS
61.6 µM: RPMI-8226 leukemia
37.5 µM: NCI-H522 lung

CCn1c(-c2ccc(F)cc2)nc2c1C(=O)c1ccccc1C2=O
> 100 µM: UACC-257 melanoma | A549 NSCLC | M14 melanoma | NCI-H522 lung | SK-OV-3 ovarian | 786-0 renal | SK-MEL-28 melanoma | SNB-75 CNS | HCC-2998 colon | SNB-19 CNS | SN12C renal | MALME-3M melanoma | PC-3 prostate | SF-295 CNS | RPMI-8226 leukemia | TK-10 renal | NCI-H226 lung
